From patent US9120728B2, “Modulators of cortical dopaminergic- and NMDA-receptor-mediated glutamatergic neurotransmission” (INTEGRATIVE RESEARCH LABORATORIES SWEDEN AB, priority 2011, dated 2015)

Assays:
[1] = system: d-amphetamine pre-treated rats; test: Reduction of amphetamine-induced hyper-locomotion; type: in vivo; conditions: Rattus norvegicus; rats pre-treated with d-amphetamine 1.5 mg/kg i.p.; test compound 0-100 μmol/kg s.c.; distance during last 45 minutes of one hour
Source text: The increase in activity after treatment with d-amphetamine is a standard model of hyperdopaminergia. In this model, dopaminergic neurotransmission is increased by systemic administration of d-amphetamine at a dose that is sufficiently high to produce a large increase in locomotor activity. The ability of a compound to antagonize this hyperactivity reflects anti-dopaminergic properties. Furthermore, antagonism of d-amphetamine induced hyperactivity is widely used as a standard assay of antipsychotic activity (see Psychopharmacology 4th Generation of progress Chapter 68, p 793-795).
Behavioural activity is measured using eight Digiscan activity monitors (RXYZM (16) TAO, Omnitech Electronics, Columbus, Ohio, USA), connected to an Omnitech Digiscan analyzer and an Apple Macintosh computer equipped with a digital interface board (NB DIO-24, National Instruments, USA). […]
Behavioural data from each activity monitor, representing the position (horizontal center of gravity and vertical activity) of the animal at each time, are recorded at a sampling frequency of 25 Hz and collected using a custom written LABView™ application. The data from each recording session are stored and analyzed with respect to distance traveled. […]
ED50 value for reduction of amphetamine-induced hyper-locomotion is calculated by curve fitting. […]

Arc gene expression = test: Increase of Arc gene expression (Arc mRNA, real-time PCR) in rat striatum and cortex; type: in vivo; conditions: estimated ED50 on increase of Arc gene expression
Method: To investigate potential effects of compounds of the present invention on cortical and striatal NMDA receptor related synaptic signalling, Arc mRNA induction was assessed upon acute administration of a compound of the present invention. […]
Total RNA is prepared by the guanidin isothiocyanate method reported by Chomczynski & Sacchi [Chomczynski P & Sacchi N; Anal. Biochem. 1987 162 156-159]. […] The sample concentration was determined spectrophotometrically by a NanoDrop ND-1000. A quality indicator number and an integrity number of r-RNA were measured with an Experion (Bio-Rad) on random samples. […]
For real-time PCR measurements, 0.7 μl of the cDNA reaction was amplified in a 25 μl reaction mixture containing 1×PCR buffer, 0.2 mM dNTP, 3.7 mM MgCl2, 0.15 mM SYBR green, 0.4 μM of each primer, and 1U JumpStart Taq DNA polymerase. Real-time PCR was measured on CFX96 (Biorad) using the following settings for all genes, 60 s pre-incubation at 95° C., followed by 40 cycles of denaturation at 95° C. for 10 s, annealing at 56° C. for 10 s, and elongation at 72° C. for 10 s.
Initial DNA amounts were quantified by a standard curve constructed for every gene using 6 serial 4-fold dilutions of purified PCR products. […]
Arc gene amounts were normalised using the geometric mean of the amounts of the two house-keeping genes assessed (HPRT and cyclophilin A). […]

With CCCNCCOc1cc(F)cc(S(C)(=O)=O)c1 [Example 1, N-[2-(3-fluoro-5-methylsulfonyl-phenoxy)ethyl]propan-1-amine] the ED50 [1] was 24 µmol/kg, the ED50 (Arc gene expression; rat (prefrontal) cortex, evaluated to be below the lowest dose) was less than 11 µmol/kg and the ED50 (Arc gene expression; sc, rat striatum, systemic administration, 0-100 μmol/kg s.c.) was 13 µmol/kg.
